Experimental data reported in US20100210602A1, “PhoU (PerF), A P[…] INVOLVED IN [sequence] FORMATION AND TOLERANCE TO MULTIPLE ANTIBIOTICS AND [sequence] AS A DRUG TARGET FOR [sequence] BACTERIA” (priority 2006, published 2010).
Values after ≈ are worked out from the molar mass of the structure shown. Where two headings read alike, the source gives them in different places.

Legend:
[1] = system: wild type strain W3110; test: microbe, parasite or virus in culture; assay type: cell-based, E. coli; settings: Escherichia coli, W3110, LB broth, 16 h at 37° C.; for MBC: read-out: MBC; for MIC: read-out: MIC
[2] = system: PhoU mutant (JHU-313); test: MIC/MBC by serial two-fold dilutions in LB broth; assay type: cell-based, E. coli; settings: Escherichia coli, 16 h at 37° C.; for MBC: read-out: MBC; for MIC: read-out: MIC
[3] = system: JHU-313 containing pPhoU; test: MIC/MBC by serial two-fold dilutions in LB broth; assay type: cell-based, E. coli; settings: Escherichia coli, 16 h at 37° C.; for MBC: read-out: MBC; for MIC: read-out: MIC
[4] = system: JHU-313 containing pVector; test: MIC/MBC by serial two-fold dilutions in LB broth; assay type: cell-based, E. coli; settings: Escherichia coli, 16 h at 37° C.; for MBC: read-out: MBC; for MIC: read-out: MIC
[5] = system: wild type strain W3110; assay type: cell-based, E. coli; settings: for CFU after second antibiotic exposure: 20 h after 1.5 h ampicillin pre-exposure, ampicillin 100, gentamicin 20, trimethoprim 16, norfloxacin 5 μg/ml
[6] = system: PhoU mutant (JHU-313); test: Sequential antibiotic exposure of ampicillin persisters (CFU); assay type: cell-based, E. coli; settings: for CFU after second antibiotic exposure: 20 h after 1.5 h ampicillin pre-exposure, ampicillin 100, gentamicin 20, trimethoprim 16, norfloxacin 5 μg/ml
[7] = system: wild type strain W3110; assay type: cell-based; settings: for time to killing of all cells: ampicillin 100 μg/ml, norfloxacin 3 μg/ml
[8] = system: PhoU transposon mutant (JHU-313); assay type: cell-based; settings: for time to killing of all cells: ampicillin 100 μg/ml
[9] = system: PhoU deletion mutant (ΔphoU); assay type: cell-based; settings: for time to killing of all cells: ampicillin 100 μg/ml
[10] = system: W3110; test: microbe, parasite or virus in culture; settings: Escherichia coli, read-out: zone inhibition
Procedure: (§1) The sensitivity of the bacterial strains to antibiotics or peroxide was determined by Kirby-Bauer's paper disc assay as measured by zone inhibition in millimeters.
(§2) The sensitivity of bacterial strains to antibiotics or stresses was also assessed by the Kirby-Bauer method (2) using paper discs. E. coli bacteria were grown to log phase (10^8 bacteria) in LB broth. An inoculum from this culture was spread across the surfaces of LB plates to provide confluent growth. Nitrocellulose discs (7 mm in diameter) soaked with appropriate antibiotics or stress agents (100 mM H2O2, were placed on the agar surface). After incubation at 37° C. for 48 h, the diameter of the zone of growth inhibition was measured and scored according to the size of the zone of inhibition, which is directly proportional to the sensitivity of the organism to the antibiotic.

[11] = system: JHU-313; test: Kirby-Bauer paper disc assay, zone inhibition; settings: Escherichia coli, read-out: zone inhibition
Procedure: as §1, §2

[12] = system: JHU-313 containing pPhoU; test: Kirby-Bauer paper disc assay, zone inhibition; settings: Escherichia coli, read-out: zone inhibition
Procedure: as §1, §2

[13] = system: JHU-313 containing pVector; test: Kirby-Bauer paper disc assay, zone inhibition; settings: Escherichia coli, read-out: zone inhibition
Procedure: as §1, §2

[14] = biological target: T1, PhoU (Escherichia coli, UniProt P0A9K7); test: PhoU phosphatase substrate specificity; assay type: biochemical, E. coli; settings: pH5, pH7 and pH8
T1 construct: His; made in house
T1 sequence (P0A9K7 whole entry): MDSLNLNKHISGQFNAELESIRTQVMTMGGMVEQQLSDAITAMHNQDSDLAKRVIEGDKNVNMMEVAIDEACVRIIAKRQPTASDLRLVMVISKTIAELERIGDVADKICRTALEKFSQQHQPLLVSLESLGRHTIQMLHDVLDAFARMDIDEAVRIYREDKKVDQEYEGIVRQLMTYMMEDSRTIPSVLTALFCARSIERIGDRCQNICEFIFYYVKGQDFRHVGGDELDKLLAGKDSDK
Procedure: Different substrates for the PhoU phosphatase activity were tested. […] For PhoU, the substrates acetyl-P, carbamoyl-P, imido-di phosphate (imido-di-P), r-nitrophenyl phosphate (rNPP), β-Nicotinamide adenine dinucleotide phosphate (NADP), Glucose-1,6-bisphosphate (Glucose-1,6-bisP) were tested at pH5, pH7, and pH8 condition, as potential PhoU phosphatase activity.

[15] = log phase, ampicillin 100 μg/ml, 1.5 h
[16] = log phase, 100 μg/ml, 24 hr exposure
[17] = log phase, 1 week, Ap100, Norf3
[18] = log phase, 5 hr, ampicillin 100 μg/ml (Ap100), norfloxacin 3 μg/ml (Norf3)
[19] = log phase, 3 days, Ap100, Norf3
[20] = log phase, 5 days, Ap100, Norf3
[21] = log phase, 10 days, Ap100, Norf3
[22] = stationary phase, 100 μg/ml, 72 hr
[23] = stationary phase, 1 week, Ap100, Norf3
[24] = stationary phase, 5 hr, ampicillin 100 μg/ml (Ap100), norfloxacin 3 μg/ml (Norf3)
[25] = stationary phase, 1 day, Ap100, Norf3
[26] = stationary phase, 3 days, Ap100, Norf3
[27] = stationary phase, 5 days, Ap100, Norf3
[28] = stationary phase, 10 days, Ap100, Norf3
[29] = stationary phase, 3 μg/ml, 120 hr exposure
[30] = stationary phase, norfloxacin 3 μg/ml

## CC1(C)S[C@@H]2[C@H](NC(=O)[C@H](N)c3ccccc3)C(=O)N2[C@H]1C(=O)O [Ampicillin, ampicillin]
[1]
  MBC: 12.5 µg/mL (≈ 35.8 µM)
  MIC: 3.1 µg/mL (≈ 8.87 µM)
[2]
  MBC: 6.25 µg/mL (≈ 17.9 µM)
  MIC: 1.5 µg/mL (≈ 4.29 µM)
[3]
  MBC: 12.5 µg/mL (≈ 35.8 µM)
  MIC: 3.1 µg/mL (≈ 8.87 µM)
[4]
  MBC: 6.25 µg/mL (≈ 17.9 µM)
  MIC: 3.1 µg/mL (≈ 8.87 µM)
[5]
  CFU after second antibiotic exposure: 7 × 10^5 CFU/ml
[5]; log phase, 100 μg/ml, 1.5 hr
  decrease in CFU count: 3 log
[5]; [15]
  CFU after ampicillin treatment: 7 × 10^4 CFU/ml
[6]
  CFU after second antibiotic exposure: 0 CFU/ml
[6]; log phase, 100 μg/ml, 1.5 hr
  decrease in CFU count: 3 log
[6]; [15]
  CFU after ampicillin treatment: 4 × 10^4 CFU/ml
[7]; [16]
  viable bacteria left: 10-100
[7]; [17]
  CFU: 0 CFU
[7]; [18]
  CFU: 3 × 10^3 CFU
[7]; log phase, 1 day, Ap100, Norf3
  CFU: 10 CFU
[7]; [19]
  CFU: 0 CFU
[7]; [20]
  CFU: 0 CFU
[7]; [21]
  CFU: 0 CFU
[7]; log phase
  time to killing of all cells: all cells were killed by three days
[7]; [22]
  viable cells: 10^8 CFU/ml
[7]; [23]
  CFU: 5 × 10^6 CFU
[7]; [24]
  CFU: 5 × 10^9 CFU
[7]; [25]
  CFU: 3 × 10^9 CFU
[7]; [26]
  CFU: 1 × 10^8 CFU
[7]; [27]
  CFU: 3 × 10^7 CFU
[7]; [28]
  CFU: 2 × 10^5 CFU
[8]; log phase, 100 μg/ml, 3 hr
  killed more than the wild type strain: about 100 fold
[8]; [16]
  viable cells remaining: no viable cells remained
[8]; [17]
  CFU: 0 CFU
[8]; [18]
  CFU: 20 CFU
[8]; log phase, 1 day, Ap100, Norf3
  CFU: 0-1 CFU
[8]; [19]
  CFU: 0 CFU
[8]; [20]
  CFU: 0 CFU
[8]; [21]
  CFU: 0 CFU
[8]; log phase, norfloxacin 3 μg/ml
  time to killing of all cells: all cells were killed by three days
[8]; [22]
  sterilization of culture: completely sterilized
[8]; [23]
  CFU: 0 CFU
[8]; [24]
  CFU: 2 × 10^8 CFU
[8]; [25]
  CFU: 1 × 10^7 CFU
[8]; [26]
  CFU: 0 CFU
[8]; [27]
  CFU: 0 CFU
[8]; [28]
  CFU: 0 CFU
[9]; [17]
  CFU: 0 CFU
[9]; [18]
  CFU: 6 × 10^2 CFU
[9]; log phase, 1 day, Ap100, Norf3
  CFU: 0-1 CFU
[9]; [19]
  CFU: 0 CFU
[9]; [20]
  CFU: 0 CFU
[9]; [21]
  CFU: 0 CFU
[9]; log phase, norfloxacin 3 μg/ml
  time to killing of all cells: all cells were killed by three days
[9]; [23]
  CFU: 0 CFU
[9]; [24]
  CFU: 6 × 10^8 CFU
[9]; [26]
  CFU: 0 CFU
[9]; [27]
  CFU: 0 CFU
[9]; [28]
  CFU: 0 CFU
[10]
  zone of inhibition at 1.5 µg/mL: 21 mm
  zone of inhibition at 6 µg/mL: 25 mm
  zone of inhibition at 25 µg/mL: 28 mm
  zone of inhibition at 100 µg/mL: 35 mm
[11]
  zone of inhibition at 1.5 µg/mL: 25 mm
  zone of inhibition at 6 µg/mL: 30 mm
  zone of inhibition at 25 µg/mL: 35 mm
  zone of inhibition at 100 µg/mL: 40 mm
[12]
  zone of inhibition at 1.5 µg/mL: 25 mm
  zone of inhibition at 6 µg/mL: 32 mm
  zone of inhibition at 25 µg/mL: 36 mm
  zone of inhibition at 100 µg/mL: 40 mm
[13]
  zone of inhibition at 1.5 µg/mL: 27 mm
  zone of inhibition at 6 µg/mL: 34 mm
  zone of inhibition at 25 µg/mL: 40 mm
  zone of inhibition at 100 µg/mL: 45 mm

## CCn1cc(C(=O)O)c(=O)c2cc(F)c(N3CCNCC3)cc21 [Norfloxacin, norfloxacin]
[1]
  MBC: 1 µg/mL (≈ 3.13 µM)
  MIC: 0.5 µg/mL (≈ 1.57 µM)
[2]
  MBC: 0.5 µg/mL (≈ 1.57 µM)
  MIC: 0.125 µg/mL (≈ 0.391 µM)
[3]
  MBC: 1 µg/mL (≈ 3.13 µM)
  MIC: 0.5 µg/mL (≈ 1.57 µM)
[4]
  MBC: 0.5 µg/mL (≈ 1.57 µM)
  MIC: 0.125 µg/mL (≈ 0.391 µM)
[5]
  CFU after second antibiotic exposure: 7 × 10^5 CFU/ml
[6]
  CFU after second antibiotic exposure: 0 CFU/ml
[7]; [17]
  CFU: 0 CFU
[7]; [18]
  CFU: 1 × 10^8 CFU
[7]; log phase, 1 day, Ap100, Norf3
  CFU: 4 × 10^6 CFU
[7]; [19]
  CFU: 5 × 10^4 CFU
[7]; [20]
  CFU: 7 × 10^2 CFU
[7]; [21]
  CFU: 0 CFU
[7]; log phase
  time to killing of all cells: 5 days
[7]; [29]
  viable bacteria left: about 10^7 CFU/ml
[7]; [23]
  CFU: 1.5 × 10^4 CFU
[7]; [24]
  CFU: 5 × 10^9 CFU
[7]; [25]
  CFU: 4 × 10^9 CFU
[7]; [26]
  CFU: 1 × 10^8 CFU
[7]; [27]
  CFU: 4 × 10^6 CFU
[7]; [28]
  CFU: 2 × 10^2 CFU
[8]; [17]
  CFU: 0 CFU
[8]; [18]
  CFU: 2 × 10^7 CFU
[8]; log phase, 1 day, Ap100, Norf3
  CFU: 4 × 10^5 CFU
[8]; [19]
  CFU: 0 CFU
[8]; [20]
  CFU: 0 CFU
[8]; [21]
  CFU: 0 CFU
[8]; log phase, norfloxacin 3 μg/ml
  time to killing of all cells: 1 days
[8]; [29]
  viable bacteria left: no viable bacteria were left
[8]; [23]
  CFU: 0 CFU
[8]; [24]
  CFU: 3 × 10^8 CFU
[8]; [25]
  CFU: 4.5 × 10^7 CFU
[8]; [26]
  CFU: 2 × 10^5 CFU
[8]; [27]
  CFU: 0 CFU
[8]; [28]
  CFU: 0 CFU
[8]; [30]
  time to complete killing: ≤ 5 days
[9]; [17]
  CFU: 0 CFU
[9]; [18]
  CFU: 5 × 10^7 CFU
[9]; log phase, 1 day, Ap100, Norf3
  CFU: 1 × 10^6 CFU
[9]; [19]
  CFU: 0 CFU
[9]; [20]
  CFU: 0 CFU
[9]; [21]
  CFU: 0 CFU
[9]; log phase, norfloxacin 3 μg/ml
  time to killing of all cells: 1 days
[9]; [23]
  CFU: 0 CFU
[9]; [24]
  CFU: 6 × 10^8 CFU
[9]; [25]
  CFU: 2 × 10^8 CFU
[9]; [26]
  CFU: 3 × 10^5 CFU
[9]; [27]
  CFU: 0 CFU
[9]; [28]
  CFU: 0 CFU
[9]; [30]
  time to complete killing: ≤ 5 days
[10]
  zone of inhibition at 0.1 µg/mL: 24 mm
  zone of inhibition at 0.5 µg/mL: 27 mm
  zone of inhibition at 2 µg/mL: 30 mm
  zone of inhibition at 4 µg/mL: 32 mm
[11]
  zone of inhibition at 0.1 µg/mL: 28 mm
  zone of inhibition at 0.5 µg/mL: 30 mm
  zone of inhibition at 2 µg/mL: 34 mm
  zone of inhibition at 4 µg/mL: 37 mm
[12]
  zone of inhibition at 0.1 µg/mL: 27 mm
  zone of inhibition at 0.5 µg/mL: 31 mm
  zone of inhibition at 2 µg/mL: 35 mm
  zone of inhibition at 4 µg/mL: 36 mm
[13]
  zone of inhibition at 0.1 µg/mL: 29 mm
  zone of inhibition at 0.5 µg/mL: 35 mm
  zone of inhibition at 2 µg/mL: 40 mm
  zone of inhibition at 4 µg/mL: 44 mm

## O=P(O)(O)OC[C@H]1O[C@H](OP(=O)(O)O)[C@H](O)[C@@H](O)[C@@H]1O [Glucose-1,6-bisP, Glucose-1,6-bisphosphate]
[14]
  rank as PhoU phosphatase substrate: acetyl-P>rNPP>carbamoyl-P>Glucose-1,6-bisP>NADP
